CC(C)(C)OC(=O)N[C@@H](CCC(N)=O)C(=O)O
solubility (mole fraction)
Details | 283.15 K | 288.15 K | 293.15 K | 298.15 K | 303.15 K | 308.15 K | 313.15 K | 318.15 K | 323.15 K
in 2-butanone | 0.0208 | 0.0219 | 0.0247 | 0.0294 | 0.035 | 0.0408 | 0.0517 | 0.068 | 0.0995
in acetone | 0.0586 | 0.0675 | 0.0797 | 0.0959 | 0.105 | 0.127 | 0.146 | 0.168 | 0.187
in acetonitrile | 0.00293 | 0.00389 | 0.00493 | 0.0064 | 0.008 | 0.0113 | 0.0165 | 0.0243 | 0.0356
in ethanol | 0.13 | 0.139 | 0.148 | 0.155 | 0.165 | 0.177 | 0.191 | 0.202 | –
in ethyl acetate | 0.00199 | 0.00241 | 0.00301 | 0.00377 | 0.00475 | 0.00596 | 0.00774 | 0.0102 | 0.0145
in isobutanol | 0.0317 | 0.0398 | 0.0479 | 0.055 | 0.0676 | 0.0766 | 0.0843 | 0.0943 | 0.108
in isopropanol | 0.0536 | 0.0626 | 0.0789 | 0.0922 | 0.108 | 0.124 | 0.153 | 0.175 | 0.198
in methyl acetate | 0.00534 | 0.00588 | 0.00699 | 0.00843 | 0.0115 | 0.0173 | 0.0254 | 0.0393 | 0.0649
in n-butanol | 0.0427 | 0.0487 | 0.0554 | 0.0649 | 0.0748 | 0.0924 | 0.119 | 0.146 | –
in n-pentanol | 0.0343 | 0.0352 | 0.0382 | 0.0417 | 0.0481 | 0.0573 | 0.07 | 0.0946 | –
in n-propanol | 0.057 | 0.0698 | 0.0803 | 0.0938 | 0.116 | 0.135 | 0.162 | 0.207 | –
in water | 0.00718 | 0.00807 | 0.00935 | 0.0126 | 0.0205 | 0.0307 | 0.0554 | 0.0905 | –

From BigSolDB 2.1
